Experimental data published in PMC5650142, “GPR40 partial agonists and AgoPAMs: Differentiating effects on glucose and hormonal secretions in the rodent” (PLoS ONE, 2017).
Several values for one entry are separate records, joined by “and”; a condition that tells them apart may be missing. Equal entries are not always repeated. Where two headings read alike, the source gives them in different places.

Assays:
mouse GPR40 = biological target: T1, mouse GPR40 (Mus musculus, UniProt Q76JU9); assay: Mouse GPR40 IP1 accumulation assay; assay type: cell-based
T1 construct: expressed in transfected cells; host or cells: CHO-K1 (methods)
Summary of the method: (§1)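 IP1 accumulation is measured by HTRF after 60 min compound stimulation at room temperature in LiCl (50 mM)-containing buffer. Compounds run in ½-log dilutions from a final top concentration of 10 μM or 1 μM. Cells are hGPR40/HEK293, mGPR40/CHO-K1 and rGPR40/CHO-K1. Activity is scaled between DMSO and a partial allosteric agonist and fitted to a 4-parameter curve for EC50 and maximum.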

human GPR40 [1] = biological target: T2, human GPR40 (Homo sapiens, UniProt O14842); assay: Human GPR40 IP1 accumulation assay; assay type: cell-based; parameters: expressed in transfected cells
Summary of the method: as §1

rat GPR40 = biological target: T3, rat GPR40 (Rattus norvegicus, UniProt Q8K3T4); assay: Rat GPR40 IP1 accumulation assay; assay type: cell-based
T3 construct: expressed in transfected cells; host or cells: CHO-K1 (methods)
Summary of the method: as §1

human GPR40 [2] = biological target: T2, human GPR40; assay: GPR40 binding assay, partial agonist tracer [3H]L358; parameters: expressed in transfected cells; host or cells: CHO / CHO-K1 cells, membrane preparation; conditions: radioligand L-001533358;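 on %Bound: 100% is tracer binding with DMSO alone and 0% is full displacement by a standard compound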
Summary of the method: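 SPA binding on membranes from CHO cells stably expressing human GPR40 (5 μg/well, with WGA beads) in Tris/MgCl2/EDTA buffer at room temperature. Each compound was tested against tracer [3H]L358 (partial-agonist site) or [3H]25 (AgoPAM site), since it may displace or augment tracer binding. Maximal % bound and IC50 were derived from scintillation counts.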

[3] = maximal % activity vs in-house partial agonist control

T1 sequence (Q76JU9 whole entry): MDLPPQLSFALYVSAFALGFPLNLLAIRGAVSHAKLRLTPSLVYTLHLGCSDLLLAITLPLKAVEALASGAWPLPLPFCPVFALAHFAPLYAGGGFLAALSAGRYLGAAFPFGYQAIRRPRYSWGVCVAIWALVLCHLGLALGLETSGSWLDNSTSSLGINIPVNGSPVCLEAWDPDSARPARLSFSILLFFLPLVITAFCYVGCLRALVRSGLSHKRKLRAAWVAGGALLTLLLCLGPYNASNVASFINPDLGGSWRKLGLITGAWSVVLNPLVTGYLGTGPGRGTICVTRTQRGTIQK
T2 sequence (O14842 whole entry): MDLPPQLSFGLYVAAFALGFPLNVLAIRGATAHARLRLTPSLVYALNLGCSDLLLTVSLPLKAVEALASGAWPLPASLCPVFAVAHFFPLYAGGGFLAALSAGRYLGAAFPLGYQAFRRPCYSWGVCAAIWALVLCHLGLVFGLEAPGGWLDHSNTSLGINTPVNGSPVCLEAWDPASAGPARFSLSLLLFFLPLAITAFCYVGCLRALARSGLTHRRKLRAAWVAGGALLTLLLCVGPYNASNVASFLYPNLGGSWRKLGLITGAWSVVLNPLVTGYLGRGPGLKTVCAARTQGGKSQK
T3 sequence (Q8K3T4 whole entry): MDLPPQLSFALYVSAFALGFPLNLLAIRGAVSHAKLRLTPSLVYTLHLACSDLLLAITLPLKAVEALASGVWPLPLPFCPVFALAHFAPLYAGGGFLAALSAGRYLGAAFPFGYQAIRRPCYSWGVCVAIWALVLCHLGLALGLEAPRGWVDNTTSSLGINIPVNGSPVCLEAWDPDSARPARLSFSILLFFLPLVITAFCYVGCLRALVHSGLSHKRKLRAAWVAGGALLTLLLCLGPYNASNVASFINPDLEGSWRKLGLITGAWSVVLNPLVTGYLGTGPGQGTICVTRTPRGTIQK

COc1ccc(F)c(-c2ccc([C@@H]3CCc4ccc([C@H](C5CC5)[C@H](C)C(=O)O)cc4O3)cc2)c1 [AP1]
Mouse GPR40 Receptor Activation (%) (mouse GPR40; dose 1.50E-11 M): 13% | Mouse GPR40 Receptor Activation (%) (mouse GPR40; dose 1.55E-08 M): 531% | Mouse GPR40 Receptor Activation (%) (mouse GPR40; dose 2.43E-10 M): 207% | Mouse GPR40 Receptor Activation (%) (mouse GPR40; dose 2.49E-07 M): 540% | Mouse GPR40 Receptor Activation (%) (mouse GPR40; dose 3.89E-09 M): 508% | Mouse GPR40 Receptor Activation (%) (mouse GPR40; dose 4.00E-12 M): -3.79% | Mouse GPR40 Receptor Activation (%) (mouse GPR40; dose 6.10E-11 M): 72% | Mouse GPR40 Receptor Activation (%) (mouse GPR40; dose 6.22E-08 M): 489% | Mouse GPR40 Receptor Activation (%) (mouse GPR40; dose 9.72E-10 M): 327% | %Act, Mouse GPR40, Functional Assay (mouse GPR40; individual determinations): 325% and 647% and 612% and 390% and 593% and 587% and 801% and 441% and 392% and 533% | EC50 (mouse GPR40; individual determinations, read-out: EC50 (nM), Mouse GPR40, Functional Assay): 0.44 nM and 0.48 nM and 0.55 nM and 0.56 nM and 0.66 nM and 0.74 nM and 0.33 nM and 0.41 nM and 0.43 nM | Efficacy (% Activation), Mouse (mouse GPR40; [3]): (532%) | EC50 (mouse GPR40; mean ± SD, n = 2–20, IP accumulation, read-out: Potency [EC50, nM] ± SD, Mouse): 0.51 ± 0.12 nM | Human GPR40 Receptor Activation (%) (human GPR40 [1]; dose 1.50E-11 M): 35% | Human GPR40 Receptor Activation (%) (human GPR40 [1]; dose 1.55E-08 M): 357% | Human GPR40 Receptor Activation (%) (human GPR40 [1]; dose 2.43E-10 M): 231% | Human GPR40 Receptor Activation (%) (human GPR40 [1]; dose 2.49E-07 M): 381% | Human GPR40 Receptor Activation (%) (human GPR40 [1]; dose 3.89E-09 M): 357% | Human GPR40 Receptor Activation (%) (human GPR40 [1]; dose 4.00E-12 M): 5% | Human GPR40 Receptor Activation (%) (human GPR40 [1]; dose 6.10E-11 M): 154% | Human GPR40 Receptor Activation (%) (human GPR40 [1]; dose 6.22E-08 M): 356% | Human GPR40 Receptor Activation (%) (human GPR40 [1]; dose 9.72E-10 M): 323% | Human GPR40 Receptor Activation (%) (human GPR40 [1]; dose 9.95E-07 M): 404% | %Act, HUMAN GPR40, Functional Assay (human GPR40 [1]; individual determinations): 254% and 368% and 338% and 409% and 464% and 275% and 405% and 364% and 355% | EC50 (human GPR40 [1]; individual determinations, read-out: EC50 (nM), HUMAN GPR40, Functional Assay): 0.13 nM and 0.14 nM and 0.18 nM and 0.19 nM and 0.22 nM and 0.08 nM and 0.09 nM and 0.12 nM | Efficacy (% Activation), Human (human GPR40 [1]; [3]): (359%) | EC50 (human GPR40 [1]; mean ± SD, n = 2–20, IP accumulation, read-out: Potency [EC50, nM] ± SD, Human): 0.15 ± 0.05 nM | Rat GPR40 Receptor Activation (%) (rat GPR40; dose 1.50E-11 M): 7% | Rat GPR40 Receptor Activation (%) (rat GPR40; dose 1.55E-08 M): 588% | Rat GPR40 Receptor Activation (%) (rat GPR40; dose 2.43E-10 M): 161% | Rat GPR40 Receptor Activation (%) (rat GPR40; dose 2.49E-07 M): 616% | Rat GPR40 Receptor Activation (%) (rat GPR40; dose 3.89E-09 M): 549% | Rat GPR40 Receptor Activation (%) (rat GPR40; dose 4.00E-12 M): 0.25% | Rat GPR40 Receptor Activation (%) (rat GPR40; dose 6.10E-11 M): 52% | Rat GPR40 Receptor Activation (%) (rat GPR40; dose 6.22E-08 M): 567% | Rat GPR40 Receptor Activation (%) (rat GPR40; dose 9.72E-10 M): 357% | Rat GPR40 Receptor Activation (%) (rat GPR40; dose 9.95E-07 M): 567% | %Act, Rat GPR40, Functional Assay (rat GPR40; individual determinations): 391% and 456% and 671% and 592% and 636% and 716% and 674% and 356% and 385% and 437% | EC50 (rat GPR40; individual determinations, read-out: EC50 (nM), Rat GPR40, Functional Assay): 0.45 nM and 0.46 nM and 0.58 nM and 0.61 nM and 0.72 nM and 0.95 nM and 1.15 nM and 0.31 nM and 0.33 nM and 0.36 nM | Efficacy (% Activation), Rat (rat GPR40; [3]): (531%) | EC50 (rat GPR40; mean ± SD, n = 2–20, IP accumulation, read-out: Potency [EC50, nM] ± SD, Rat): 0.59 ± 0.28 nM | % Bound Normalized to 100 (human GPR40 [2]; dose 0.318285 nM): 100.72% | %Bound (human GPR40 [2]; dose 0.318285 nM): 106.70% | % Bound Normalized to 100 (human GPR40 [2]; dose 1.00578 nM): 118.24% | %Bound (human GPR40 [2]; dose 1.00578 nM): 124.21% | % Bound Normalized to 100 (human GPR40 [2]; dose 3.17827 nM): 131.70% | %Bound (human GPR40 [2]; dose 3.17827 nM): 137.67% | % Bound Normalized to 100 (human GPR40 [2]; dose 10.0433 nM): 152.63% | %Bound (human GPR40 [2]; dose 10.0433 nM): 158.61% | % Bound Normalized to 100 (human GPR40 [2]; dose 31.7369 nM): 164.17% | %Bound (human GPR40 [2]; dose 31.7369 nM): 170.14% | % Bound Normalized to 100 (human GPR40 [2]; dose 100.289 nM): 171.43% | %Bound (human GPR40 [2]; dose 100.289 nM): 177.41% | % Bound Normalized to 100 (human GPR40 [2]; dose 316.912 nM): 183.61% | %Bound (human GPR40 [2]; dose 316.912 nM): 189.59% | % Bound Normalized to 100 (human GPR40 [2]; dose 1001.44 nM): 174.85% | %Bound (human GPR40 [2]; dose 1001.44 nM): 180.83% | % Bound Normalized to 100 (human GPR40 [2]; dose 3164.56 nM): 169.51% | %Bound (human GPR40 [2]; dose 3164.56 nM): 175.49% | % Bound Normalized to 100 (human GPR40 [2]; dose 10000 nM): 192.80% | %Bound (human GPR40 [2]; dose 10000 nM): 198.77%
